This is an account of results in BindingDB's records for doi:10.1021/cb300426u (University of St. Andrews, 2013).

This experiment concerns the target Glucose-1-phosphate thymidylyltransferase (Pseudomonas aeruginosa (strain ATCC 15692 / DSM 22644 / CIP 104116 / JCM 14847 / LMG 12228 / 1C / PRS 101 / PAO1), UniProt Q9HU22). Put plainly: Inhibition Assay. From the text:
Inhibition assay using glucose-1-phosphate thymidylyltransferase (RmlA).

Sequence of Glucose-1-phosphate thymidylyltransferase (Q9HU22 whole entry): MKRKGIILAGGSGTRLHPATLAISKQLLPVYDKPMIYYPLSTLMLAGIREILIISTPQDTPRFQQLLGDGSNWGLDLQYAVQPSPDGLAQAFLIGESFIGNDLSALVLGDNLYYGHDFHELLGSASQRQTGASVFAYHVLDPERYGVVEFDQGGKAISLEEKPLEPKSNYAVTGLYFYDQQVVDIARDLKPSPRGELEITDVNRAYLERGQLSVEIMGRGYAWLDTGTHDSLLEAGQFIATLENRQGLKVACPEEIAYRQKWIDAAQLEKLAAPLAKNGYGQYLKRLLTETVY

The term IC50 denotes the concentration at which inhibition is half-maximal. A lower IC50 goes with greater potency. Regarding `CNc1c(N)n(Cc2ccccc2)c(=O)[nH]c1=O` [6-azanyl-5-(methylamino)-1-(phenylmethyl)pyrimidine-2,4-dione], the IC50 is above 60000 nM.
The compound `CCN(c1c(N)n(Cc2ccccc2)c(=O)[nH]c1=O)S(=O)(=O)c1ccccc1` [Analogue of 1a, 8b] registered a 50% inhibitory concentration (IC50) of 102 nM.
`CN(C(=O)c1ccccc1)c1c(N)n(Cc2ccccc2)c(=O)[nH]c1=O` [Analogue of 1a, 8f] showed an IC50 above 60000 nM.
On to `Nc1c(NS(=O)(=O)c2ccccc2)c(=O)[nH]c(=O)n1Cc1ccccc1` [Analogue of 1a, 15a], for which the IC50 turned out to be 1320 nM.
`CN(c1c(N)n(Cc2ccccc2)c(=O)[nH]c1=O)S(=O)(=O)c1ccccc1` [Analogue of 1a, 8a] showed an IC50 of 73 nM.
The figure for `CCCN(c1c(N)n(Cc2ccccc2)c(=O)[nH]c1=O)S(=O)(=O)c1ccccc1` [Analogue of 1a, 8c] is above 10000 nM.
The figure for `CN(c1c(N)n(Cc2ccccc2)c(=O)[nH]c1=O)S(=O)(=O)c1ccco1` [Analogue of 1a, 8t] is 105 nM; for `CCCCn1c(N)c(N(C)C(=O)c2ccco2)c(=O)[nH]c1=O` [Analogue of 1a, 5] it is 5900 nM; for `CCCCn1c(N)c(N(C)S(=O)(=O)c2ccccc2)c(=O)[nH]c1=O` [Analogue of 1a, 1] it is 210 nM.
The figure for `Nc1c(O)n(Cc2ccccc2)c(=O)[nH]c1=O` [Analogue of 1a, 2] is 1140 nM.
